In ChEMBL document CHEMBL1149858, “Degradation-promoters of cellular inhibitor of apoptosis protein 1 based on bestatin and actinonin” (Bioorg Med Chem, 2008):
Activity calls are given as the source filed them. The rule behind the calls is not given here.

Columns and labels:
[1] = molecular target: Baculoviral IAP repeat-containing protein 2 (Homo sapiens, UniProt Q13490); assay: Promotion of flag-tagged cIAP1 degradation in human HT1080 cells assessed as decrease in cIAPI production after 3 hrs; assay type: cell-based
Chain of Baculoviral IAP repeat-containing protein 2 (Q13490 whole entry): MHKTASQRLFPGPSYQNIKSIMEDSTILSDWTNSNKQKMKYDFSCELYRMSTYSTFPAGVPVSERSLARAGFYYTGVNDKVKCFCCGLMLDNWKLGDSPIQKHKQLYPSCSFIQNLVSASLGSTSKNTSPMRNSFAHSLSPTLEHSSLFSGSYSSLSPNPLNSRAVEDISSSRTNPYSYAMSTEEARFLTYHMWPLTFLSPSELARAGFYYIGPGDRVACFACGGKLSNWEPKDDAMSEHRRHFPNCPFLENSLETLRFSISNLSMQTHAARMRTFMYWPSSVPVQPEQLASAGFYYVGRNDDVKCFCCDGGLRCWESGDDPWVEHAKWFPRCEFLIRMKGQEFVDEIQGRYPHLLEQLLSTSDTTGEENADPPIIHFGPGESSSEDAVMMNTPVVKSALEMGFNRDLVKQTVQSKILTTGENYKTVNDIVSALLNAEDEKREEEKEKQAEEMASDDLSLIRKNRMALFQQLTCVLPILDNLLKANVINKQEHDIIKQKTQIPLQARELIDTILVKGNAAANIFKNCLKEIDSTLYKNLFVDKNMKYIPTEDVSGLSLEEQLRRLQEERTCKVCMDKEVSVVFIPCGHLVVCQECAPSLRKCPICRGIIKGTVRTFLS

[2] = test system: HT-1080; assay: Enhancement of actinomycin D-induced apoptosis of human HT1080 cells at 10 uM; assay type: functional, cell-based
[3] = test system: HT-1080; assay: Enhancement of cisplatin-induced apoptosis of human HT1080 cells at 10 uM; assay type: functional, cell-based
[4] = test system: HT-1080; assay: Enhancement of etoposide-induced apoptosis of human HT1080 cells at 10 uM; assay type: functional, cell-based
[5] = test system: HT-1080; assay: Enhancement of camptothecin-induced apoptosis of human HT1080 cells at 10 uM; assay type: functional, cell-based
[6] = test system: HT-1080; assay: Enhancement of anti-Fas antibody CH11-induced apoptosis of human HT1080 cells at 30 uM after 24 hrs; assay type: functional, cell-based

Row | Compound | Activity ([1]; HT-1080) | IC50 [1] [µM] | Activity [2] | Activity [3] | Activity [4] | Activity [5] | Activity [6]
1 | COC(=O)[C@H](CC(C)C)NC(=O)[C@H](N)CC(=O)NO | inactive |  |  |  |  |  | 
2 | CCCCC[C@H](CC(=O)NO)C(=O)N[C@H](C(=O)OC)C(C)(C)C |  | > 20 |  |  |  |  | 
3 | CCCCC[C@H](CC(=O)NO)C(=O)N[C@@H](C)C(=O)OC |  |  | Active | Active | Active | Active | 
4 | COC(=O)[C@H](CC(C)C)NC(=O)[C@@H](O)[C@H](N)Cc1ccccc1 |  |  | Active | Active | Active | Active | Active
